From publication PMC4766392, “Identification and Characterization of the Glucose-6-Phosphate Dehydrogenase Gene Family in the Para Rubber Tree, Hevea brasiliensis” (Frontiers in Plant Science, 2016)

Tests used:
Assay in all cases: NADPH formation at […] nm, commercial kit, E. coli supernatant
Assay type in all cases: biochemical
Conditions in all cases: 25°C, MBP fusion, empty-vector control
HbG6PDH3 = biological target: T1, HbG6PDH3 (Hevea brasiliensis, UniProt A0A068LJY6)
T1 construct: gene G6PDH-3; primer with start codon ATGGGTTCGGGTCAGTGG
T1 sequence (A0A068LJY6 entry or part of it): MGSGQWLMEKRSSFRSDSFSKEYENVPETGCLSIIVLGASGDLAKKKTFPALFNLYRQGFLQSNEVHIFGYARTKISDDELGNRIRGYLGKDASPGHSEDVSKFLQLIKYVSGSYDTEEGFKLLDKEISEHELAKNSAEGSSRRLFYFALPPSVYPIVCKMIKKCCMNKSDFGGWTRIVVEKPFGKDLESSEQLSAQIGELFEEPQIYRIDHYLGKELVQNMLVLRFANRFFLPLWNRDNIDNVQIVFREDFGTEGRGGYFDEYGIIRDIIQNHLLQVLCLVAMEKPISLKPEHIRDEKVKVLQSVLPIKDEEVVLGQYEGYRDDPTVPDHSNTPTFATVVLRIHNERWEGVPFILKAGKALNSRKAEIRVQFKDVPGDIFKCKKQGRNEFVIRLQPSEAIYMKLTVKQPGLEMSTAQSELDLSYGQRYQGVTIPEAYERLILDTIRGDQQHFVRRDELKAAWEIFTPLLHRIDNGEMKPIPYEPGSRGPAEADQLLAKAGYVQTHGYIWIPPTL

HbG6PDH2 = biological target: T2, HbG6PDH2 (Hevea brasiliensis, UniProt A0A068LJJ9)
T2 construct: gene G6PDH-2; forward primer starts at ATGGCGCCCCTTTC
T2 sequence (A0A068LJJ9 entry or part of it): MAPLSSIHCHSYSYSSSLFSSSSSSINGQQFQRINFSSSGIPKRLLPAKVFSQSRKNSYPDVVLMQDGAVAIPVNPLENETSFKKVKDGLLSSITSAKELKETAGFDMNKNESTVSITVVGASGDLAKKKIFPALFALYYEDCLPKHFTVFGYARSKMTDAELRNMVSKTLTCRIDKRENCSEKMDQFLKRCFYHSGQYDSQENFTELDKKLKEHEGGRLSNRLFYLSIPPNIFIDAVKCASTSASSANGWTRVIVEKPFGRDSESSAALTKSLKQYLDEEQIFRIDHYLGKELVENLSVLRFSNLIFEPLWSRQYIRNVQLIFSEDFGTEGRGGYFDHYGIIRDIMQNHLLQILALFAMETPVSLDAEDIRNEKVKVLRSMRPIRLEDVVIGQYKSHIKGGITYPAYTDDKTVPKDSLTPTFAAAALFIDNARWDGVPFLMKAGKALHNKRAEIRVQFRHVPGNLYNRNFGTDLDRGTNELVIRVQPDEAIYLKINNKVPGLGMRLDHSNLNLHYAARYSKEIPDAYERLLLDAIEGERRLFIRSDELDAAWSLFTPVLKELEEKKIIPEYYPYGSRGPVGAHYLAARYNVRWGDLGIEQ

HbG6PDH1 = biological target: T3, HbG6PDH1 (Hevea brasiliensis, UniProt A0A068LLN2)
T3 construct: gene G6PDH-1; forward primer starts at ATGCCAAGAAAATATGG
T3 sequence (A0A068LLN2 entry or part of it): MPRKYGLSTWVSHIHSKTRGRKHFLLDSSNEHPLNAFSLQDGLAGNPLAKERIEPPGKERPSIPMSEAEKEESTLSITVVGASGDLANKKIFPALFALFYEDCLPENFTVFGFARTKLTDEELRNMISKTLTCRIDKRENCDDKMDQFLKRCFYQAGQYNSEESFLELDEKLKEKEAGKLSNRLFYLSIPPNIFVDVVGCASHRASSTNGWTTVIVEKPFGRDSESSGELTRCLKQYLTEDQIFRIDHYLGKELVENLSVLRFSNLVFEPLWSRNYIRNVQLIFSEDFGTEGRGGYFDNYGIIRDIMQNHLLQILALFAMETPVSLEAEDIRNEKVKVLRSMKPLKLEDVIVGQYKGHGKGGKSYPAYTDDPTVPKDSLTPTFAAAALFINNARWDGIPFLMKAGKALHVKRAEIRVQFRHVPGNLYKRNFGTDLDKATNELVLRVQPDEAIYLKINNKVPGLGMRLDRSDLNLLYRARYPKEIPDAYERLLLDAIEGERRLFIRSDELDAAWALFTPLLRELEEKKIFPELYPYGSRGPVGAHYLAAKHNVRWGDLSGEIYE

HbG6PDH4 = biological target: T4, HbG6PDH4 (Hevea brasiliensis, UniProt A0A068LJB4)
T4 construct: gene G6PDH-4; primer with start codon ATGTCGATGTCAATTTC
T4 sequence (A0A068LJB4 entry or part of it): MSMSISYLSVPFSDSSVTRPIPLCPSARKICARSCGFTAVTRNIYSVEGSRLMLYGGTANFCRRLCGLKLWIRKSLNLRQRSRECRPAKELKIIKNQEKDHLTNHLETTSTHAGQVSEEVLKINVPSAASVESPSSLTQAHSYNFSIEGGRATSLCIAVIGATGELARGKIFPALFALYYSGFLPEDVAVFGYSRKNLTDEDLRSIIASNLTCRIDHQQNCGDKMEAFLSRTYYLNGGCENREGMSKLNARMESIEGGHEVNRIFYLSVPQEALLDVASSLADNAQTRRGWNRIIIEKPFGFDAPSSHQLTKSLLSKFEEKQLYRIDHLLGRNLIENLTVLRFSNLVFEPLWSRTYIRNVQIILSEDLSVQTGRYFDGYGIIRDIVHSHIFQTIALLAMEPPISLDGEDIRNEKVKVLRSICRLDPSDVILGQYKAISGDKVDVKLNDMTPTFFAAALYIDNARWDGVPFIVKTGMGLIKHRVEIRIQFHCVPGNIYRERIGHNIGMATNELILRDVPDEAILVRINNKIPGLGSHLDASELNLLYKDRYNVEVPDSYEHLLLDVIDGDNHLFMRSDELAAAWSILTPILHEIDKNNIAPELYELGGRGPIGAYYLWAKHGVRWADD

[1] = glucose-6-phosphate as co-substrate

| Structure (SMILES) | NADPH formation at 340 nm, commercial kit, E. coli supernatant (HbG6PDH3; [1]) | NADPH formation at 340 nm, commercial kit, E. coli supernatant (HbG6PDH2; [1]) | NADPH formation at 340 nm, commercial kit, E. coli supernatant (HbG6PDH1; [1]) | NADPH formation at 340 nm, commercial kit, E. coli supernatant (HbG6PDH4; [1]) | NADPH formation at 340 nm, commercial kit, E. coli supernatant (HbG6PDH3; NADP+ as co-substrate) | NADPH formation at 340 nm, commercial kit, E. coli supernatant (HbG6PDH2; NADP+ as co-substrate) | NADPH formation at 340 nm, commercial kit, E. coli supernatant (HbG6PDH1; NADP+ as co-substrate) | NADPH formation at 340 nm, commercial kit, E. coli supernatant (HbG6PDH4; NADP+ as co-substrate) |
| --- | --- | --- | --- | --- | --- | --- | --- | --- |
| NC(=O)c1ccc[n+]([C@@H]2O[C@H](COP(=O)(O)OP(=O)(O)OC[C@H]3O[C@@H](n4cnc5c(N)ncnc54)[C@H](OP(=O)(O)O)[C@@H]3O)[C@@H](O)[C@H]2O)c1 [NADP^+] | all four HbG6PDH genes encode enzymatically active G6PDHs | all four HbG6PDH genes encode enzymatically active G6PDHs | all four HbG6PDH genes encode enzymatically active G6PDHs | all four HbG6PDH genes encode enzymatically active G6PDHs |  |  |  |  |
| O=P(O)(O)OC[C@H]1OC(O)[C@H](O)[C@@H](O)[C@@H]1O (some centres unmarked) [glucose-6-phosphate] |  |  |  |  | all four HbG6PDH genes encode enzymatically active G6PDHs | all four HbG6PDH genes encode enzymatically active G6PDHs | all four HbG6PDH genes encode enzymatically active G6PDHs | all four HbG6PDH genes encode enzymatically active G6PDHs |
